# Test results from PubChem BioAssay AID602267 (Broad Institute, 2012).
# Calls of active or inactive are those of the source.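 How the source made its calls: active means signal falls with dose and the fitted half-maximal concentration is at or below twice the top valid tested dose; inconclusive means flat curve with 30 to 70% inhibition, or poor fit; inactive means wrong direction, flat within 30%, or potency beyond limit.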
# Target: Golgi-associated PDZ and coiled-coil motif-containing protein (Homo sapiens) (UniProt Q9HD26)
# Assay: blockers of CAL PDZ ligand groove binding – biochemical, fluorescence polarization, untagged CAL PDZ, cherry-pick, dose response (AID 602267)
# Conditions: purified CAL PDZ, TMR-peptide fluorescence polarization, 1 h
row,Compound,AC50
1,CCNc1ccc2noc3c2c1C(=O)c1ccccc1-3,4740 nM
2,COC(=O)c1ccccc1-c1c2ccc(=N)cc-2oc2cc(N)ccc12,2030 nM
3,COc1ccc2noc3c2c1C(=O)c1ccccc1-3,1780 nM

# Same assay, conditions: purified CAL PDZ, TMR-peptide fluorescence polarization, 1 h; at 16 µM (top of the series)
row,Compound,"activity change, negative = inhibition"
1,COCCCNC(=O)c1c[nH]c2ccc(S(=O)(=O)N3CCC(C)CC3)cc2c1=O,inactive
2,COc1ccc2c(c1)c(=Cc1ccc(N(C)C)cc1)c1cc(-c3ccccc3)[n+](C)n12,inactive
3,Oc1ccccc1N=Cc1c(O)ccc2oc3c(c12)CCCC3,inactive

# Same assay, conditions: purified CAL PDZ, TMR-peptide fluorescence polarization, 1 h; at 50 µM (top of the series)
row,Compound,"activity change, negative = inhibition"
1,O=C(COC(=O)c1ccccc1C(=O)N1CCN(c2ccccc2)CC1)NCc1ccccc1,inactive
2,N=c1c(S(=O)(=O)c2ccc(Cl)cc2)cc2c(=O)n3ccccc3nc2n1C1CCCCC1,inactive
3,Cc1ccc2nc(-c3cccc(Br)c3)cc(C(=O)NC3=NCCS3)c2c1,inactive
4,Cn1nc(C(=O)N2CCCc3ccccc32)c2ccccc2c1=O,inactive
5,COc1ccc(CC(=O)NNC(=O)CCc2ccccc2)cc1OC,inactive
6,CC(=O)Nc1cccc(NC(=O)CSc2nnc(NC(=O)c3ccco3)s2)c1,inactive
7,C(=N\N1CCOCC1)/c1nc(-c2ccccc2)n2ccccc12,inactive
8,CCCOc1ccc(S(=O)(=O)Nc2ccccn2)c2ccccc12,inactive
9,Cc1ccc(CN2CCN(Cc3nc4ccccc4nc3C)CC2CCO)cc1 (centres undefined),inactive
10,O=C(CN1CC[n+]2c(-c3cccs3)csc21)c1ccc(-c2ccccc2)cc1,inactive
11,COc1ccc(S(=O)(=O)N2CCOCC2)cc1NC(=O)CN1CCCCCC1,inactive
12,O=C(NCCCn1ccnc1)c1ccccc1F,inactive
13,Cc1cc(SC2CCOC2=O)nc2ccccc12 (centres undefined),inactive
14,Nc1ncnc2c1C(c1ccccc1)c1c(ccc3ccccc13)O2 (centres undefined),inactive
15,O=C1CN=C(c2ccccc2)c2oc3ccc(Br)cc3c2N1,inactive
16,CCc1noc(C)c1C(=O)N1CCCC(CCC(=O)NCc2ccc(F)c(F)c2)C1 (centres undefined),inactive
17,CC1=C(C#N)C(=O)NC(=O)/C1=C\c1ccc(-c2cc(C)c(C)cc2[N+](=O)[O-])o1,inactive
18,Cc1cc(NC(=O)Cc2ccc(Br)cc2)no1,inactive
19,Cc1cccc(-n2nc(C)c3c2NC2=C(C(=O)CCC2)C3c2ccccn2)c1 (centres undefined),inactive
20,O=C(NC1CCCCCCC1)c1cc([N+](=O)[O-])ccc1Cl,inactive
21,COC(=O)C1CCN(C(=O)/C(C)=C\c2ccccc2)CC1,inactive
22,CCOC(=O)c1ccc(NC(=S)N2CCCC(C(=O)N3CCCC3)C2)cc1 (centres undefined),inactive

row,Compound,"activity change, negative = inhibition"
1,CC(O)CNCCCOc1cccc(Oc2ccccc2)c1 (centres undefined),inactive
2,CC12CNCC(C)(CN(C3(O)C(=O)Nc4ccc(Br)cc43)C1)C2=O (centres undefined),inactive
3,CS(=O)(=O)c1ccc(Cl)c(NC(=O)COC(=O)c2c(Cl)cccc2Cl)c1,inactive
4,O=C1CN(C(=O)CC2C(=O)NCCN2Cc2ccccc2C(F)(F)F)CCN1 (centres undefined),inactive
5,O=C(c1ccccc1)C(CCc1ccccn1)CCc1ccccn1,inactive
6,CC1CCN(C(=O)COC(=O)c2cccs2)CC1,inactive
7,CCOc1ccc(S(=O)(=O)N2CCCCC2)c(C)c1C,inactive
8,CCOC(=O)NC(=O)COC(=O)CCCSc1nc2ccccc2s1,inactive
9,Cc1nn2c3ccccc3nc2c2ccccc12,inactive
10,Cc1c(C(=O)OCC(=O)NC(=O)NC2CCCCC2)cccc1[N+](=O)[O-],inactive
11,Cc1ccc(NC(=O)N2CCCC2C(=O)NCC2CCCO2)cc1 (centres undefined),inactive
12,CC1CCC(NC(=O)C2CCN(c3cnccn3)CC2)CC1 (centres undefined),inactive
13,COc1cc(S(=O)(=O)n2nc(C)cc2C)ccc1Cl,inactive
14,O=C(OCC(=O)N1CCc2ccccc2C1)c1cccnc1Cl,inactive
15,O=C(NCCc1cnc[nH]1)c1cccs1,inactive
16,O=C(Nc1ccc([N+](=O)[O-])cc1)Nc1cnccn1,inactive
17,CSc1ccc(CNCCCSc2ncccn2)cc1,inactive
18,COc1ccccc1Oc1coc2cc(OC(=O)N3CCOCC3)ccc2c1=O,inactive
19,COc1cccc(-c2cccc(NC(=O)C3CCN(Cc4ccc(CO)o4)CC3)c2)c1,inactive
20,Cc1cc(SCC(=O)OCC(=O)c2c(N)n(C)c(=O)n(C)c2=O)c(C)cc1Br,inactive
21,O=C(COc1ccc(Cl)cc1Cl)Nc1nnc(C2=COCCO2)o1,inactive
22,CCCC(=O)OCC(=O)Nc1ccccc1C#N,inactive

row,Compound,"activity change, negative = inhibition"
1,COc1cc([N+](=O)[O-])ccc1NC(=O)CN1CCN(C(=O)c2ccco2)CC1,inactive
2,COc1ccc(CCn2c(=S)[nH]c3ccc(N4CCOCC4)cc3c2=O)cc1OC,inactive
3,CC(C)CN1CCN(Cc2cccc3c2OCO3)CC1CCO (centres undefined),inactive
4,Cc1ccc(-n2c(SCC(N)=O)nnc2-c2ccco2)cc1,inactive
5,Cn1c(=O)c2c(nc(-c3ccc(N(CCCl)CCCl)cc3)n2C)n(C)c1=O,inactive
6,O=C(NCc1ccccc1)C1CCCN(c2nc3ccsc3c(=O)s2)C1 (centres undefined),inactive
7,COc1ccc(-c2nc3ccccc3o2)cc1OC,inactive
8,O=C(NNS(=O)(=O)c1ccc(Cl)cc1)c1cccs1,inactive
9,Cc1cc(C)c(S(=O)(=O)NCc2ccc3c(c2)OCO3)c(C)c1,inactive
10,CCOC(=O)c1nc(NCCc2ccccc2)sc1C,inactive
11,COc1ccc(NC(=O)c2ccc3c(c2)NC(=O)CO3)cc1OC,inactive
12,CCc1ccc(C2CC(=O)N(c3cccc(F)c3)C3=C2C(=O)OC3)cc1 (centres undefined),inactive
13,COC(=O)c1cccc([N+](=O)[O-])c1CS(=O)(=O)c1ccc(C)cc1,inactive
14,O=S(=O)(c1cccc2ccccc12)N1CCCCC1,inactive
15,CN(C)/N=C1\CCS(=O)(=O)c2sccc21,inactive
16,COc1ccc(C(=O)NC2(C(F)(F)F)C(=O)Nc3c2c(=O)[nH]c(=O)n3CCc2ccc(OC)c(OC)c2)cc1 (centres undefined),inactive
17,COC(=O)c1ccc(CNC(=O)COC(=O)c2cc(Cl)nc(Cl)c2)cc1,inactive
18,CN=c1scc(C)n1/N=C/c1cc(Br)c(O)c(Br)c1,inactive
19,C/C(CC(=O)Nc1ccc(C)c(Cl)c1)=N\NC(=O)Cc1cnc(N)s1,inactive
20,Cc1c(Cl)c(C(F)(F)F)nn1CC(=O)NCc1ccco1,inactive
21,O=C(NCC(=O)N1CCC(N2CCCCC2)CC1)C1CCCCC1,inactive
22,Cc1ccc2nc(NCc3ccc(F)cc3)c3nncn3c2c1,inactive

row,Compound,"activity change, negative = inhibition"
1,CCOc1ccccc1CN1CCC(n2nccc2NC(=O)C2CCCC2)CC1,inactive
2,CS(=O)(=O)c1ccc2nc(NC(=O)CN3C(=O)C4CC=CCC4C3=O)sc2c1 (centres undefined),inactive
3,COc1ccc(-n2c(=S)[nH]c3c(sc(=S)n3-c3ccccc3)c2=O)c(OC)c1,inactive
4,CCN(CC)S(=O)(=O)c1ccc(/C=C/C(=O)OCC(=O)N(C)C)cc1,inactive
5,O=C(CCC(=O)N1CCN(c2ccccc2F)CC1)N1CCN(c2ccccc2)CC1,inactive
6,OCC1(CCOc2ccccc2)CCN(CCCn2cccn2)CC1,inactive
7,Cc1ccc2cc(C#N)c(N3CCCN(S(=O)(=O)c4ccccc4)CC3)nc2c1,inactive
8,Cn1c(=O)c2c(nc(SCC(=O)NCC3CCCO3)n2Cc2ccc(F)cc2)n(C)c1=O (centres undefined),inactive
9,Cc1nn(C)c(C)c1S(=O)(=O)N1CCC(CO)(CC2CCCCO2)CC1 (centres undefined),inactive
10,O=C(NC(Cc1c[nH]c2ccccc12)C(=O)O)/C(=C/c1ccc(F)cc1)NC(=O)c1ccccc1 (centres undefined),inactive
11,O=C(CSc1nccc(=O)[nH]1)Nc1ccc(Oc2ccccc2)cc1,inactive
12,CCCCN1CC(O)=C(c2nc(-c3ccc(Cl)cc3)cs2)C1=N,inactive
13,CO[C@H]1O[C@H](C)[C@@H](O)C[C@H]1NC(=O)OCc1ccccc1,inactive
14,CCc1nnc(NS(=O)(=O)c2ccc(NC(=O)CCC(=O)O)cc2)s1,inactive
15,O=C(NNC(=S)NC(=O)c1ccc(Br)cc1)c1ccc([N+](=O)[O-])cc1,inactive
16,CN(C)CCNC(=O)COc1cccc2c1OC(C)(C)C2,inactive
17,Nc1nc2ccccc2cc1S(=O)(=O)c1ccccc1,inactive
18,O=C(O)c1cccc(Nc2ccc([N+](=O)[O-])cn2)c1,inactive
19,COc1ccc(Br)c(C(=O)NC2CCCC2)c1,inactive
20,CCCn1cnc2c(SCCc3ccccc3)nc(N)nc21,inactive
21,Cc1ccccc1-n1c(C)c(C#N)c(=O)c(-[n+]2ccccc2)c1[S-],inactive
22,O=C(O)CCCC(=O)N1N=C(c2ccccc2)CC1c1ccc2c(c1)OCO2 (centres undefined),inactive
